Assay results from paper PMC11790914, “Chemogenomics for steroid hormone receptors (NR3)” (Communications Chemistry, 2025).
Where “and” joins values, the source holds several entries; their conditions need not be identical. Identical values can stand only once.

Columns and labels:
HEK293T cells [1] = assay: Cytotoxicity: necrosis induction (red fluorescent dye for permeable plasma membranes); format: cell-based; settings: 1 µM, 24 h, necrotic cell count normalized to 0.1% DMSO, single replicates;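 also: compounds applied in DMEM high glucose with 0.1% FCS and 0.1% DMSO, necrotic HEK293T cells counted by red staining of cells whose plasma membranes had become permeable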
Gal4-VP16 = format: cell-based; settings: 1 µM; vs. DMSO ctrl; single replicates n=1-3
Description: Five hours after transfection, the cells were incubated with the NR3 CG compound candidates at the recommended concentrations by changing the medium to Opti-MEM supplemented with penicillin (100 µ/mL) and streptomycin (100 µg/mL) additionally containing 0.1% DMSO and the respective test compound or 0.1% DMSO alone as untreated control. Firefly (reporter) and renilla (control) luminescence were measured after 14–16 h incubation using the Dual-Glo® Luciferase Assay System (Promega, Fitchburg, Wisconsin, USA; #E2980) according to manufacturer’s protocol on a Tecan Spark® 10M multimode microplate reader (Tecan Group AG, Männedorf, Switzerland). To obtain relative light units (RLU) firefly luminescence was divided by renilla luminescence and multiplied by 1000. Fold activation was obtained by dividing the mean RLU of a test sample by the mean RLU of the DMSO (0.1%) control. Experiments were performed in singlets in at least three biologically independent repeats.
are labeled according to their mode of action (yellow - agonist, grey - antagonist, grey with label D - degrader) and grouped by their
NR3 subfamily main targets.
reporter activity at the indicated concentrations expressed as mean fold reporter gene activity (n=3).

ABL1 = molecular target: T1, ABL1 (Homo sapiens, UniProt P00519); assay: Liability panel screening by DSF: ABL1; format: binding; settings: DSF, 20 µM, n=2; read-out: Mean ΔTM ABL1
T1 construct: made in house
T1 sequence (P00519 whole entry, species assumed): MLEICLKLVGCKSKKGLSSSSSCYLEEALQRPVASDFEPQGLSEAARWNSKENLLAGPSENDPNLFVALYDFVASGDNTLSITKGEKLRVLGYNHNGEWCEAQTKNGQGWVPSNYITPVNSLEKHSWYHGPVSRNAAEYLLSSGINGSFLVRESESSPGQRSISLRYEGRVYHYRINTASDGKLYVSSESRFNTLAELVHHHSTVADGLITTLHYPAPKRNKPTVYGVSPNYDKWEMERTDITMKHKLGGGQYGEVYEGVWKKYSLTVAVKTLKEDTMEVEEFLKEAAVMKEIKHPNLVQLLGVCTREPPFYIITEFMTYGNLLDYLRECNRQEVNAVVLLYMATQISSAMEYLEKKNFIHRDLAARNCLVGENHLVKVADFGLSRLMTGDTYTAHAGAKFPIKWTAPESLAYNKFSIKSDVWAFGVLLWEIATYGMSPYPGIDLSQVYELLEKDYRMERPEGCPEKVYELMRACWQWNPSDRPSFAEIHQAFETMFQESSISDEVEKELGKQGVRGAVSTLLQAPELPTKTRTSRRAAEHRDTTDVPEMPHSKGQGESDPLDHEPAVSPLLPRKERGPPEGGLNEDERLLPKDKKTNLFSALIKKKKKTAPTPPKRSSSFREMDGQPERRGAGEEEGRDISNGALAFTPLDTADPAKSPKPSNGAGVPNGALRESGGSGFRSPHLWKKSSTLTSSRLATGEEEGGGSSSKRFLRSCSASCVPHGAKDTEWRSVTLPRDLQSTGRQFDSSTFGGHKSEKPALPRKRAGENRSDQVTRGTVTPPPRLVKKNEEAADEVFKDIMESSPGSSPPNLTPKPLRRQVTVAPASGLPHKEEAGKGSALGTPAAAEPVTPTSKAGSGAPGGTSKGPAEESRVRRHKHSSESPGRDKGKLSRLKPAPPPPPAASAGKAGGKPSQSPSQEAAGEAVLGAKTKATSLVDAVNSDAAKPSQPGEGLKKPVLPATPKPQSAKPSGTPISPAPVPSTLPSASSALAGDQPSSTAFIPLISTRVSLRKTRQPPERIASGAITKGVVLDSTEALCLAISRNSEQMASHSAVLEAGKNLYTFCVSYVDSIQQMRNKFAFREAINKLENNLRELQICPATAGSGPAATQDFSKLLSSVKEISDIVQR
Description: (§1) Reference ligands are listed in the methods section.
(§2) In-house produced recombinantly expressed proteins[62] of the liability panel targets were diluted in a buffer containing 10 mM HEPES (pH 7.5) and 500 mM NaCl to a concentration of 2 µM. SYPRO Orange (Invitrogen, Carlsbad, California, USA; #S6650) as a fluorescence probe was added at a 1:1000 dilution to the proteins. […] Temperature-dependent unfolding profiles were measured on a QuantStudio™ 5 real-time PCR machine (Thermo Fisher Scientific, Waltham, Massachusetts, USA; #A28140). […] The temperature was increased 3 °C per minute to a maximum temperature of 85 °C. Experiments were run as technical duplicates. […] Data were analyzed with the internal Thermal Shift Software (version 1.4, Thermo Fisher Scientific) using the Boltzmann equitation to determine the inflection point of the transition curve. Differences in melting temperature are given as ∆Tm in K. […]
(§3) scanning fluorimetry (DSF).
(§4) a concentration of 20 µM.

AURKA = molecular target: T2, AURKA (Homo sapiens, UniProt O14965); assay: Liability panel screening by DSF: AURKA; format: binding; settings: DSF, 20 µM, n=2; read-out: Mean ΔTM AURKA
T2 construct: made in house
T2 sequence (O14965 1-403): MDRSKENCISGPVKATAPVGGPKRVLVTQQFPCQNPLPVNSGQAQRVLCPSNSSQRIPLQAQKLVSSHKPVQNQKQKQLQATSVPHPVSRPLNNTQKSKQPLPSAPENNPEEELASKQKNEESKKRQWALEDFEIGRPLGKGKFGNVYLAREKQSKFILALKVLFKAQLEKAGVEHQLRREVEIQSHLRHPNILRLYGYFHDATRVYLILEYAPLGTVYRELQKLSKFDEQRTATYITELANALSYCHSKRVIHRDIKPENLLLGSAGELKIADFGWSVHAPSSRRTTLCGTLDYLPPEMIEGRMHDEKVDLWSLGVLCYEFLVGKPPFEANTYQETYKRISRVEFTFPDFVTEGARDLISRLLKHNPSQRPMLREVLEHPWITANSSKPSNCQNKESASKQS
Description: as §1, §2, §3, §4

CDK2 = molecular target: T3, CDK2 (Homo sapiens, UniProt P24941); assay: Liability panel screening by DSF: CDK2; format: binding; settings: DSF, 20 µM, n=2; read-out: Mean ΔTM CDK2
T3 construct: made in house
Description: as §1, §2, §3, §4

FGFR3 = molecular target: T4, FGFR3 (Homo sapiens, UniProt P22607); assay: Liability panel screening by DSF: FGFR3; format: binding; settings: DSF, 20 µM, n=2; read-out: Mean ΔTM FGFR3
T4 construct: made in house
T4 sequence (P22607 23-806, species assumed): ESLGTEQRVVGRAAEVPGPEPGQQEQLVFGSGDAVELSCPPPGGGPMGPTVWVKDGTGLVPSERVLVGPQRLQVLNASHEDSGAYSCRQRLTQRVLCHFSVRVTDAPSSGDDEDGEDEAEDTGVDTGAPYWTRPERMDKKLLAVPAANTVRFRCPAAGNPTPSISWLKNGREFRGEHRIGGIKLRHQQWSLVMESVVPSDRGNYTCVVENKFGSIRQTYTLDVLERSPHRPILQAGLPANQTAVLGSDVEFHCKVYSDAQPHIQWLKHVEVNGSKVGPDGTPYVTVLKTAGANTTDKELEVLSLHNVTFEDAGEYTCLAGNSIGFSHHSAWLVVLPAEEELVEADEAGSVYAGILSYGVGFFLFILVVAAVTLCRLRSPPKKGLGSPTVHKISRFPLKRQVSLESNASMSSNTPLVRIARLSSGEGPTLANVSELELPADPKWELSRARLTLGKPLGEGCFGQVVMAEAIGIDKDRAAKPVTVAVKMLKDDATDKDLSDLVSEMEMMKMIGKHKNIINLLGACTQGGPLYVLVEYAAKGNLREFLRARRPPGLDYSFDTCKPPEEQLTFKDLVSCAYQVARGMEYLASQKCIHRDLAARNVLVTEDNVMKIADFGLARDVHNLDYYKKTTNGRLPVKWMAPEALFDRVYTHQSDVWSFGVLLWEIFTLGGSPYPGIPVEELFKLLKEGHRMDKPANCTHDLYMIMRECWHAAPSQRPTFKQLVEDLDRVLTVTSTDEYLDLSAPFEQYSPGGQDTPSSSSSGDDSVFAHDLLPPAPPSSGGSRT
Description: as §1, §2, §3, §4

GSK3B = molecular target: T5, GSK3B (Homo sapiens, UniProt P49841); assay: Liability panel screening by DSF: GSK3B; format: binding; settings: DSF, 20 µM, n=2; read-out: Mean ΔTM GSK3B
T5 construct: made in house
T5 sequence (P49841 whole entry, species assumed): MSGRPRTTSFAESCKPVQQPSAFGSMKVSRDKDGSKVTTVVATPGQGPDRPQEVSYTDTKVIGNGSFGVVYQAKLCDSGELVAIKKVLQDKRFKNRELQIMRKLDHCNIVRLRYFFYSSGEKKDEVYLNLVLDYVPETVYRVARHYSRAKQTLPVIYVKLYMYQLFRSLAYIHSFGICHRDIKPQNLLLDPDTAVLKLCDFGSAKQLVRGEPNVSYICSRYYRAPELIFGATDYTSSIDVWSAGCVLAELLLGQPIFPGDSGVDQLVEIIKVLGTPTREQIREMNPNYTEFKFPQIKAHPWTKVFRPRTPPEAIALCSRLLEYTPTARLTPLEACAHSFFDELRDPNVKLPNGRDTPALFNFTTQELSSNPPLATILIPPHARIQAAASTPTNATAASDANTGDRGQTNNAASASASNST

BRD4 = molecular target: T6, BRD4 (Homo sapiens, UniProt O60885); assay: Liability panel screening by DSF: BRD4; format: binding; settings: DSF, 20 µM, n=2; read-out: Mean ΔTM BRD4
T6 construct: This panel comprised ten highly ligandable kinases and bromodomains; made in house
Description: as §1, §2, §3, §4

BRPF1 = molecular target: T7, BRPF1 (Homo sapiens, UniProt P55201); assay: Liability panel screening by DSF: BRPF1; format: binding; settings: DSF, 20 µM, n=2; read-out: Mean ΔTM BRPF1
T7 construct: This panel comprised ten highly ligandable kinases and bromodomains; made in house
T7 sequence (P55201 628-732 limits assumed): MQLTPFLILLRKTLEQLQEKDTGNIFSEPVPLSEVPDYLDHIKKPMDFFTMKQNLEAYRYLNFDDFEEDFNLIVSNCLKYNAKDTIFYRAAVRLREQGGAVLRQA
Description: as §1, §2, §3, §4

CSNK1D = molecular target: T8, CSNK1D (Homo sapiens, UniProt P48730); assay: Liability panel screening by DSF: CSNK1D; format: binding; settings: DSF, 20 µM, n=2; read-out: Mean ΔTM CSNK1D
T8 construct: made in house
T8 sequence (P48730 whole entry, species assumed): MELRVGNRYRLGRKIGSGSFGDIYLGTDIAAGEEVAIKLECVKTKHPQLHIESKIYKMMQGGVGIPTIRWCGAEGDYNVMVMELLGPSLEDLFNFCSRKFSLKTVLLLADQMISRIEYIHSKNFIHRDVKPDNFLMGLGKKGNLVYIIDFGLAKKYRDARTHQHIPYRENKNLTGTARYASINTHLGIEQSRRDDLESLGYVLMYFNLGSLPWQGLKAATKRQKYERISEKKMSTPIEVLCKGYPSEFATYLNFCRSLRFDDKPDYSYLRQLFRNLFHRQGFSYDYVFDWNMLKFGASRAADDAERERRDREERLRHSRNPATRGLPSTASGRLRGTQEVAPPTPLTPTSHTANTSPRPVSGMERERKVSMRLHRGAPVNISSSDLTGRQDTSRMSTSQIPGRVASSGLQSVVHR
Description: as §1, §2, §3, §4

MAPK1 = molecular target: T9, MAPK1 (Homo sapiens, UniProt P28482); assay: Liability panel screening by DSF: MAPK1; format: binding; settings: DSF, 20 µM, n=2; read-out: Mean ΔTM MAPK1
T9 construct: made in house
T9 sequence (P28482 whole entry, species assumed): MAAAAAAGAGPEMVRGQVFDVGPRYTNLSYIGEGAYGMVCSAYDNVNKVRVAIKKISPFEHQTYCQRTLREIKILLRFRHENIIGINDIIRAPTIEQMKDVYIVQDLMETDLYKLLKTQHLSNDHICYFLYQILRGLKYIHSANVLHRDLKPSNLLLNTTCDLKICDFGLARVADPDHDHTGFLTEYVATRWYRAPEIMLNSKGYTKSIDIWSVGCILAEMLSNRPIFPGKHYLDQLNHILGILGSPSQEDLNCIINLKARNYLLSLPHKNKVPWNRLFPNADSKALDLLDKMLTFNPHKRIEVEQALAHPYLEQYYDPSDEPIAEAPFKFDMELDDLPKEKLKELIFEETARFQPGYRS
Description: as §1, §2, §3, §4

TRIM24 = molecular target: T10, TRIM24 (Homo sapiens, UniProt O15164); assay: Liability panel screening by DSF: TRIM24; format: binding; settings: DSF, 20 µM, n=2; read-out: Mean ΔTM TRIM24
T10 construct: This panel comprised ten highly ligandable kinases and bromodomains; made in house
T10 sequence (O15164 899-1004 limits assumed): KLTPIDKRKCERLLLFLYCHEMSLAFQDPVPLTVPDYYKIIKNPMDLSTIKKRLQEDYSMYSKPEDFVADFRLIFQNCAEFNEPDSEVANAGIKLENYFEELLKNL
Description: as §1, §2, §3, §4

[2] = test system: NF-κB activity in HEK293 NF-κB reporter cells; assay: NF-kB activity assay (GFP reporter, ionomycin/PMA); format: cell-based; settings: n=3
Description: Fig. 6 Application of the NR3 CG set.
After 24 h, cells were incubated with the test compounds solubilized with 0.1% DMSO in the same medium without puromycin. After 4 h incubation, ionomycin (100 ng/mL) and phorbol-12-myristat-13-acetate (PMA, 10 ng/mL) was added, and the cells were imaged for confluence and GFP expression every 90 min. over 24 h using a Tecan SPARK Cyto (Tecan). The number of GFP expressing cells was normalized to confluence in each sample. Each sample was repeated in three biologically independent experiments.

[3] = test system: ATF6 activity in Hela ATF6 reporter cells; assay: Endoplasmic reticulum stress assay (ATF6 Renilla luciferase reporter, tunicamycin); format: cell-based; settings: Homo sapiens, HeLa, 1 µM, single replicates n=1 to n=5; read-out: ER stress [rel. ATF6 activity]
Description: After 24 h, cells were incubated with the test compounds solubilized with 0.1% DMSO in the same medium without puromycin. After 4 h incubation, tunicamycin (100 ng/mL) was added. After another 18 h incubation, cells were assayed for renilla luminescence using DualGlo reagent (Promega) on a Tecan SPARK Cyto (Tecan). Test samples were normalized to the 0.1% DMSO control. Each sample was repeated in five biologically independent experiments.

HEK293T cells [4] = assay: Cytotoxicity: metabolic activity (WST-8 / CCK-8 assay); settings: 1 µM; HEK293T, 24 h; WST-8; normalized to 0.1% DMSO; single replicates
HEK293T cells [5] = assay: Cytotoxicity: growth-rate (change in confluence over 24 h); settings: 1 µM, normalized to 0.1% DMSO control, single replicates (n=1...)
HEK293T cells [6] = assay: Cytotoxicity: apoptosis induction (caspase-3/7 DEVD fluorogenic DNA dye); settings: 1 µM; HEK293T, 24 h; apoptotic cell count normalized to 0.1% DMSO; single replicates

## COC(=O)[C@@H]1CC2=CC(=O)CC[C@]2(C)[C@@]23O[C@@H]2C[C@@]2(C)[C@@H](CC[C@@]24CCC(=O)O4)[C@H]13 [Eplerenone]
HEK293T cells [1]
  Necrosis induction [NI]: 1.05 and 1.24 and 1.00 and 0.99
Gal4-VP16
  VP16 control [fold reporter gene activity]: 1.24 fold reporter gene activity and 0.82 fold reporter gene activity and 1.00 fold reporter gene activity
ABL1
  ΔTm at 20 µM: 0.55 °C
AURKA
  ΔTm at 20 µM: -0.81 °C
CDK2
  ΔTm at 20 µM: -0.21 °C
FGFR3
  ΔTm at 20 µM: 1.06 °C
GSK3B
  ΔTm at 20 µM: -0.8 °C
BRD4
  ΔTm at 20 µM: -1.74 °C
BRPF1
  ΔTm at 20 µM: -1.07 °C
CSNK1D
  ΔTm at 20 µM: 0.47 °C
MAPK1
  ΔTm at 20 µM: 0.21 °C
TRIM24
  ΔTm at 20 µM: -0.62 °C
[2]; 1 µM, 1,5 h
  Mean NFκB response: 2599.33 GFP+-cells/confluence ∙ 1000
[2]; 1 µM, 4,5 h
  Mean NFκB response: 2970.00 GFP+-cells/confluence ∙ 1000
[2]; 1 µM, 7,5 h
  Mean NFκB response: 5786.00 GFP+-cells/confluence ∙ 1000
[2]; 1 µM, 10,5 h
  Mean NFκB response: 15820.00 GFP+-cells/confluence ∙ 1000
[2]; 1 µM, 13,5 h
  Mean NFκB response: 23870.00 GFP+-cells/confluence ∙ 1000
[2]; 1 µM, 16,6 h
  Mean NFκB response: 30236.67 GFP+-cells/confluence ∙ 1000
[2]; 1 µM, 19,5 h
  Mean NFκB response: 34356.67 GFP+-cells/confluence ∙ 1000
[2]; 1 µM, 22,5 h
  Mean NFκB response: 38213.33 GFP+-cells/confluence ∙ 1000
[2]; 1 µM, 3 h
  Mean NFκB response: 2606.00 GFP+-cells/confluence ∙ 1000
[2]; 1 µM, 6 h
  Mean NFκB response: 3625.00 GFP+-cells/confluence ∙ 1000
[2]; 1 µM, 9 h
  Mean NFκB response: 10753.00 GFP+-cells/confluence ∙ 1000
[2]; 1 µM, 12 h
  Mean NFκB response: 20210.00 GFP+-cells/confluence ∙ 1000
[2]; 1 µM, 15 h
  Mean NFκB response: 27316.67 GFP+-cells/confluence ∙ 1000
[2]; 1 µM, 18 h
  Mean NFκB response: 32426.67 GFP+-cells/confluence ∙ 1000
[2]; 1 µM, 21 h
  Mean NFκB response: 36556.67 GFP+-cells/confluence ∙ 1000
[2]; 1 µM, 24 h
  Mean NFκB response: 39176.67 GFP+-cells/confluence ∙ 1000
[3]
  activity at 1 µM: 96%
HEK293T cells [4]
  Metabolic activity [MA]: 1.06 and 1.03 and 0.91 and 0.99 (3×) and 0.98 and 1.09
HEK293T cells [5]
  Growth rate [GR]: 0.85 and 4.28 and 0.92 and 1.11 and 0.73 and 0.84 and 0.96 and 4.53 and 0.57 and 31.96
HEK293T cells [6]
  Apoptosis induction [AI]: 0.96 and 0.85 and 1.29 and 1.36 and 1.16 and 1.24
